Test results reported in article PMC11022698, “Precisely Activating cGAS‐STING Pathway with a Novel Peptide‐Based Nanoagonist to Potentiate Immune Checkpoint Blockade Cancer Immunotherapy” (Advanced Science, 2024).

How the values were obtained:
cGAS-STING pathway [1] = assay: Secretion levels of cGAMP and IFN-β in B16F10 cells; type: cell-based; details: KLA-treated B16F10 cells; n = 3
[2] = test system: B16F10 tumor-bearing C57BL/6 mouse model; assay: Anti-tumor immune responses after i.t. or i.v. injection of AMPs; type: in vivo, C57BL/6 mice; details: 7.5 mg kg^-1; for DCs maturation (CD80+ CD86+ CD11c+ cells) in lymph nodes: representative flow cytometric plot
Experimental: Next, the B16F10 tumor‐bearing C57BL/6 mouse model was established to investigate whether KLA can initiate efficient anti‐tumor immune responses by activating the cGAS‐STING pathway. The KLA was administrated either through intratumoral (i.t.) or intravenous (i.v.) injection at the dose of 7.5 mg kg^−1, 17BIPHE2 and CGA‐N12 were employed as comparative groups.

B16F10 cells [3] = assay: mtDNA leakage assay, immunofluorescence of dsDNA Marker and anti-TOMM20 (CLSM); type: cell-based; details: KLA-treated B16F10 cells, n = 3
Experimental: The endosomal escape ability of MAPN was study by analyzing the colocolization of endosomes and KLA after internalizing into cells. Briefly, B16F10 cells were seeded […]
overnight for cell attachment. KLA was labeled with FITC. The cells were incubated […]
H2O2 (100 μM) for 4 h. After 1 h, 3 h, and 6 h incubation, endosomes were stained with LysoTracker probe (red) according to manufacture’s instruction. The cells were then […]
at room temperature, and counterstained with DAPI for the easy observation of cell […]
In Vitro PD-1/PD-L1 Pathway Blockade
MAPN-mediated PD-1/PD-L1 pathway blockade was evaluated with anti-PD-L1 (sc-518027, Santa Cruz, USA) staining. Briefly, B16F10 cells were seeded at a density […]
at room temperature, and then stained with Alexa Fluor 594 (red) labeled anti -PD-L1 […]
B16F10 cells were seeded at a density of 1×10^4 cells per well in 35 mm confocal dish (Ф =15 mm) and incubated overnight for cell attachment. The cells were incubated […]
without H2O2 (100 μM) for 24 h. After washing with PBS, the cells were permeabilized, and incubated with Anti-TOMM20 antibodies (GB111481, Servicebio, China) and dsDNA Marker (sc-58749, Santa Cruz, USA) at 4 °C overnight, and then incubated with secondary antibodies for 2 h and counterstained with DAPI. All the cells were observed using a CLSM (Zeiss, Germany).
The qPCR Quantification of Cytosolic mtDNA

cGAS-STING pathway [4] = assay: Western blot of p-STING, p-TBK1 and p-IRF3 in B16F10 cells; type: cell-based; details: 40 µM, n = 3
Experimental: (§1) B16F10 cells were seeded in a 12-well plate at a density of 5×10^4 cells per well and […]
(§2) with PBS, the cells were collected by centrifugation. Cytosolic mtDNA was […] using a Cell Mitochondria Isolation Kit (C3601, Beyotime, China), and the DNA was then extracted with a TIANamp Genomic DNA kit (DP304, Tiangen Biotech, China) following the manufacturer’s protocol. The mtDNA D-Loop primers were synthesized by GenePharma Biotech (detailed sequences in Table S3, Supporting Information), and then quantified with Multiplex PCR Kit (PM101, Novoprotein , Shanghai, China) using Quantitative Real-Time PCR Detection System (Bio-Rad, CFX96, USA).
(§3) Caspase-9 and Caspase-3 Activity Assay
(§4) The B16F10 cells were seeded into a 6-well plate at the density of 2×10^5 cells per […]
(§5) cells were rinsed with PBS for three times and then treated with lysis buffer solution in ice bath for 1 h. Cell lysates were centrifuged at 12000 rpm for 5 min at 4 °C, and the supernatant was collected. The supernatant was incubated with caspase-9 or caspase-3 substrate at 37 °C in dark for 12 h. The activities of caspase-9 and caspase-3 were […]
(§6) Evaluation of cGAS-STING Pathway Activation
(§7) Western bolt was employed to evaluate the MAPN-mediated activation of cGAS-STING pathway. Briefly, B16F10 cells were first seeded into 24-well plates at 2×104 […]
(§8) culture medium with or without H2O2 (100 μM). […]

B16F10 cells [5] = assay: qRT-PCR quantification of cytosolic mtDNA; type: cell-based; details: n = 3
Experimental: as §1, §2, §3, §4, §5, §6, §7, §8

With “KLAKLAK2 [model antimicrobial peptide that promotes mtDNA leakage by changing mitochondrial inner membrane permeability]” the “IFN-β level, fold over PBS-treated cells” value (cGAS-STING pathway [1]) was 2.03 fold, the “cGAMP level, fold over PBS-treated cells” value (cGAS-STING pathway [1]) was 1.85 fold and the “DCs maturation, fold over PBS treatment” value ([2]; i.t. injection, n = 6) was 2.53 fold. For the same substance, the “pro-inflammatory cytokines (IFN-β, IFN-γ, TNF-α, IL-6, IL-12) in tumor tissues compared with other groups” value ([2]; i.t. injection, n = 6) was “significantly higher levels”, the “tumor-infiltrating CD8+ T cells, fold over PBS treatment” value ([2]; i.t. injection, n = 6) was 2.36 fold and the “DCs maturation (CD80+ CD86+ CD11c+ cells) in lymph nodes” value ([2]; i.t. injection) was 31.4%. For the same substance, the “initiation of systemic anti-tumor immune responses” value ([2]; i.v. injection) was “weak effect”, the “DCs maturation (CD80+ CD86+ CD11c+ cells) in lymph nodes” value ([2]; i.v. injection) was 17.9% and the “Pearson correlation coefficient of dsDNA and mitochondria (TOMM20)” value (B16F10 cells [3]) was 0.464. The “phosphorylation levels of STING, TBK1, and IRF3 proteins” value (cGAS-STING pathway [4]) was “remarkably increased”, the “cytosolic mtDNA level, fold over 17BIPHE2-treated cells” value (B16F10 cells [5]) was 2.41 fold and the “cytosolic mtDNA level, fold over CGA-N12-treated cells” value (B16F10 cells [5]) was 1.87 fold.
